“Also recorded” adds a separate entry of the source. No end group written: not given here.
Tests used:
[1] = tested on: hCaV2.2; experiment: FLIPR Ca2+ fluorescence, KCl/CaCl2-stimulated SH-SY5Y cells; format: cell-based, human; conditions: 10 µM, added 5 min prior to KCl/CaCl2 (90 mM/5 mM)
Experimental: (§1) To further test the selectivity of sHt1a and sGg1a, we examined their activity on hNaV1.2/NaV1.7 and hCaV2.2 channels, as well as the hα3β2/4 nicotinic acetylcholine receptor (nAchR), that are endogenously expressed in the neuroblastoma cell line SH-SY5Y using a high-throughput fluorescent assay as previously described. In brief, SH-SY5Y cells were seeded at a density of 40,000 cells/well in black-walled imaging plates (Corning, Lowell, MA, USA), then incubated for 48 h at 37 °C in a 5% humidified CO2 incubator. On the day of the assay, cells were loaded with Calcium 4 No-wash dye (Molecular Devices) by reconstituting the lyophilised dye in physiological salt solution (PSS in mM: 140 NaCl, 11.5 glucose, 5.9 KCl, 1.4 MgCl2, 1.2 NaH2PO4, 5 NaHCO3, 1.8 CaCl2, 10 HEPES, pH 7.4). Cells were incubated with the dye for 30 min at 37 °C in a 5% humidified CO2 incubator. Gg1a and Ht1a (10 µM) were added 5 min prior to stimulation with either veratridine (50 µM, hNaV1.2/NaV1.7 activator), nicotine (30 µM, hα3β2/4 nAchR activator) or KCl/CaCl2 (90 mM/5 mM, CaV1.3/2.2 activator) Fluorescent responses were recorded using a FLIPR^Penta fluorescent plate reader (Molecular Devices) with excitation at 470–495 nm and emission at 515–575 nm.

[2] = tested on: hNaV1.4; experiment: Automated whole-cell patch clamp, hNaV1.4 + β1 in HEK 293 cells; format: cell-based, human; conditions: 3 μM, 50 ms pulse to −20 mV from −90 mV, ECS with 0.1% BSA, at least 2 min
Experimental: To examine for off-target activity on mammalian ion channels and receptors, we first tested the activity of sHt1a and Gg1a against human NaV channels. Whole-cell patch-clamp recordings were performed on Human Embryonic Kidney (HEK) 293 cells stably expressing human NaV1.4 or NaV1.5 in conjunction with the β1 subunit (SB Drug Discovery, Glasgow, United Kingdom) using a QPatch II automated electrophysiology platform (Sophion Bioscience, Ballerup, Denmark). Whole-cell currents were filtered at 8 kHz and acquired at 25 kHz. The linear leak was corrected by P/4 subtraction (leak potential −90 mV, leak sweep amplitude 10%). Series resistance across recorded cells ranged between 5 and 10 MΩ. The extracellular solution (ECS) consisted of (in mM): 145 NaCl, 4 KCl, 2 CaCl2, 1 MgCl2, 10 HEPES, and 10 glucose, adjusted to pH 7.4 with NaOH and to 305 mOsm/L with sucrose. The intracellular solution (ICS) consisted of (in mM): 140 CsF, 1 EGTA, 5 CsOH, 10 HEPES, and 10 NaCl, adjusted to pH 7.3 with CsOH and 320 mOsm/L with sucrose. Currents were elicited from a holding potential of −90 mV delivered with a 50 ms depolarising pulse to −20 mV every 20 s (0.05 Hz). Peptides were diluted in ECS containing 0.1% BSA and applied to cells for at least 2 min at the concentrations stated. Peak currents were normalised to the buffer control.

[3] = tested on: honeybees; experiment: Topical application of synthetic peptides to honeybees (off-target); format: in vivo, Apis mellifera; conditions: 25 μg peptide per honeybee (52-fold the mite dose) in 2% Silwet (v/v), n = 10 workers per group, 3 repeats, vs 2% Silwet control
From the text: If sprayed within a beehive, the varroacidal peptides would need to lethal for V. destructor, but safe for the honeybees. To evaluate potential off-target activities of the varroacidal peptides, we first needed to quantify how much larger the body surface of the bees is in comparison to the mites to understand how much more of the varroacidal peptides they would receive when being sprayed. Assuming an elliptical body shape of V. destructor, the surface area can be calculated according to the following formula: A=π×a×b×2
This also means that if we evenly applied these peptides via spraying at a certain concentration to both bees and mites, then the bees would receive a 34-fold higher peptide quantity due to their correspondingly higher surface area.
To allow for an additional safety margin, we topically applied 25 μg of each peptide per bee, which is 52-fold more than the 0.48 μg that each varroa mite received. The effects of sHt1a and sGg1a were tested on honeybees kept in plastic containers in the laboratory. The containers consisted of 250 ml polypropylene round cups with a 52 mm diameter hole cut into the bottom, covered with a 68 mm diameter circle of all-purpose cloth (brand: Peggy Perfect) hot glued to the edge of the hole on the outside of the cup (Supplementary Fig. 3). A 14 mm diameter hole was cut in the lid of the cup to insert a 5 mL syringe which served as feeder. The syringe was filled with 50% sucrose solution, and its tip was cut off to facilitate solution intake by the bees. Honeybee workers were obtained from a comb with emerging individuals placed in an incubator set to 34.5 °C and 70% humidity. The next day, groups of 10 freshly emerged workers were collected, introduced into the prepared cages and placed back in the incubator overnight. The next morning, peptide and control solutions to be tested were freshly prepared from the stock solutions stored at 4 °C. Then, the bees were sedated with CO2 gas until they stopped moving. Immediately after all bees stopped moving, the plastic lid was removed, and 15 µL of testing solution (containing 2% Silwet (v/v) or 25 μg of each peptide per bee) was topically applied on each of the 10 bees per group. The solution was applied on the abdomen or thorax, but not on the wings or head of the individuals. Following treatment, the worker bees were allowed to recover from the sedation and the containers with the bees were put back in the incubator, with mortality being manually checked daily. At the end of each experiment, all arthropods were euthanised by freezing at −20 °C.

[4] = tested on: hNaV1.2/NaV1.7; experiment: FLIPR Ca2+ fluorescence, veratridine-stimulated SH-SY5Y cells; format: cell-based, human; conditions: 10 µM, added 5 min prior to veratridine (50 µM)
Experimental: as §1

[5] = tested on: hα3β2/4 nicotinic acetylcholine receptor (nAchR); experiment: FLIPR Ca2+ fluorescence, nicotine-stimulated SH-SY5Y cells; format: cell-based, human; conditions: 10 µM, added 5 min prior to nicotine (30 µM)
Experimental: as §1

Substance | effect on CaV2.2 [1] | effect on CaV2.2 ([1]; listed as sHt1a) | effect on hNaV1.4 currents [2] | effect on hNaV1.4 currents ([2]; listed as sHt1a) | honeybee mortality/survival [3] | honeybee mortality/survival ([3]; listed as sHt1a) | effect on neuronal NaV channels [4] | effect on neuronal NaV channels ([4]; listed as sHt1a) | inhibition of nicotine-mediated Ca2+ influx (α3 nAChRs) [5] | inhibition of nicotine-mediated Ca2+ influx (α3 nAChRs) ([5]; listed as sHt1a) | effect on CaV2.2 ([1]; listed as sGg1a) | effect on hNaV1.4 currents ([2]; listed as sGg1a) | honeybee mortality/survival ([3]; listed as sGg1a) | effect on neuronal NaV channels ([4]; listed as sGg1a)
KYCAPRKAVCNTPADCCDKSSRCAYPNYGLGYYLDSEFFGKRKICSWRL (also: bicyclic or more (positions not given here)) [Ht1a, μ-gradutoxin-Ht1a] | inactive | did not significantly affect | inactive | did not significantly affect | innocuous to honeybees | neither peptide caused more mortality; also recorded: did not alter honeybee survival | inactive | did not significantly affect | partially blocked | partial inhibition | – | – | – | –
U1-macrothelitoxin-Gg1a | inactive | – | inactive | – | innocuous to honeybees | – | inactive | – | inactive | – | did not significantly affect | did not significantly affect | neither peptide caused more mortality; also recorded: did not alter honeybee survival | did not significantly affect

From publication PMC13233288, “Spider venom peptides Ht1a and Gg1a are toxic to honeybee parasite Varroa destructor by topical application” (npj Drug Discovery, 2026)
